ChEMBL document CHEMBL1909046, “DrugMatrix in vitro pharmacology data”

Assays:
Substance-P receptor = Substance-P receptor (Homo sapiens, UniProt P25103); format: cell membranes, Membrane; conditions: cho; note: in other assays of this panel Not Active means under 50% inhibition at 10 µM
Thromboxane-A synthase = biological target: T1, Thromboxane-A synthase (Homo sapiens, UniProt P24557); test: biochemical; format: tissue-based, Platelet; conditions: platelet;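 note: enzyme inhibition assay with PGH2 supplied as substrate; in other assays of this panel Not Active means under 50% inhibition at 10 µM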
T1 sequence (P24557 whole entry): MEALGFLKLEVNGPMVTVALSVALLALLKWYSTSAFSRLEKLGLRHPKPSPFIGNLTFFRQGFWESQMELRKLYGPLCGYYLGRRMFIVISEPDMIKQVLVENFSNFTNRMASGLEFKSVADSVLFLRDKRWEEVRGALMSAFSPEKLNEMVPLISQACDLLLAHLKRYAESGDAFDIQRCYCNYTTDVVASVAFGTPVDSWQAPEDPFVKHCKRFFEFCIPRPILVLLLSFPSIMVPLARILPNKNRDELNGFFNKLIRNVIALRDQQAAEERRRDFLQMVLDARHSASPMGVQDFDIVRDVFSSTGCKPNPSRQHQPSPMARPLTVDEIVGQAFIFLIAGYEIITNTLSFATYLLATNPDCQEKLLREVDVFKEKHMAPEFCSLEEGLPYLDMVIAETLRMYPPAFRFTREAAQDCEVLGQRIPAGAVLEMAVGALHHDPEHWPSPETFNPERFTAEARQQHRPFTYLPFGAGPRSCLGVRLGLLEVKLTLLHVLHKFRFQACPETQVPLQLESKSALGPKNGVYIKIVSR

Adenosine receptor A1 = biological target: T2, Adenosine receptor A1 (Homo sapiens, UniProt P30542); format: cell membranes, Membrane; conditions: cho;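 note: radioligand binding assay at the adenosine A1 receptor, with DPCPX serving as the labelled ligand; in other assays of this panel Not Active means under 50% inhibition at 10 µM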
T2 sequence (P30542 whole entry): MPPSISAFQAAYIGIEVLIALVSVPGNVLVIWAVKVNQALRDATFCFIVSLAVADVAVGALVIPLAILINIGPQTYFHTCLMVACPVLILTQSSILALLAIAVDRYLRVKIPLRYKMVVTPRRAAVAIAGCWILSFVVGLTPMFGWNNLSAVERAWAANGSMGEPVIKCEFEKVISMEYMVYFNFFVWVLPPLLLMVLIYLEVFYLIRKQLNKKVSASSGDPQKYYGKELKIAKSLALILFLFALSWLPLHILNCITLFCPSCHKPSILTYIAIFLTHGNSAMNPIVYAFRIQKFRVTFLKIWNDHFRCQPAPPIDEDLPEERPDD

[1] = biological target: T3, Alpha-1A adrenergic receptor (Rattus norvegicus, UniProt P43140); test: DRUGMATRIX: Alpha-1A adrenergic receptor radioligand binding (ligand: prazosin); format: cell membranes, Wistar, Submaxillary gland, Membrane; conditions: Not Active = under 50% inhibition at 10 µM
T3 sequence (P43140 whole entry): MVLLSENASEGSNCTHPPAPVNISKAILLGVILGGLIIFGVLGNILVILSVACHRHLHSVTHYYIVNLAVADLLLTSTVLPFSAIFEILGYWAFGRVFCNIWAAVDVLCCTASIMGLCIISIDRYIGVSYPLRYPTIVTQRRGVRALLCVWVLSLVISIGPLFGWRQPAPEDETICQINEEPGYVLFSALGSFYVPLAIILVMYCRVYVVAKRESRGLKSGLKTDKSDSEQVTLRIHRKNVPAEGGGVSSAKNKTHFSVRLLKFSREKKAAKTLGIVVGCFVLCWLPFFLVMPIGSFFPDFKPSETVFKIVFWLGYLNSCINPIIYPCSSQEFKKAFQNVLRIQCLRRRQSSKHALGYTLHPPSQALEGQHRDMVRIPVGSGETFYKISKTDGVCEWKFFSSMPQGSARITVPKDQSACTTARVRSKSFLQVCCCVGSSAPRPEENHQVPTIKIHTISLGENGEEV

[2] = DRUGMATRIX: Phosphodiesterase PDE4 enzyme inhibition (substrate: [3H]cAMP + cAMP); conditions: u-937; Not Active = under 50% inhibition at 10 µM
[3] = biological target: Protein phosphatase 3 catalytic subunit alpha (Homo sapiens, UniProt Q08209); parameters: species or system Escherichia coli;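 note: inhibition of calcineurin (PP2B) enzyme activity, measured with DiFMUP as the substrate; in other assays of this panel Not Active means under 50% inhibition at 10 µM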
[4] = DRUGMATRIX: Potassium Channel [KATP] radioligand binding (ligand: [3H] Glyburide); format: cell membranes, Membrane; conditions: hit-t15; Not Active = under 50% inhibition at 10 µM
Cathepsin G = biological target: T4, Cathepsin G (Homo sapiens, UniProt P08311); format: tissue-based; conditions: neutrophil
T4 sequence (P08311 whole entry): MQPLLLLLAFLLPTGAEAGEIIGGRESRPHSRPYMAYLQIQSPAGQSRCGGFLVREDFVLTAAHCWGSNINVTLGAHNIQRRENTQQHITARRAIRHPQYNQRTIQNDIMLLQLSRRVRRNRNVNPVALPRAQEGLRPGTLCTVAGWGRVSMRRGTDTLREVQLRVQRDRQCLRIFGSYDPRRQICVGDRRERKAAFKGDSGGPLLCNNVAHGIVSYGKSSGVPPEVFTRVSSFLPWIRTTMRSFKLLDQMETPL

Cytochrome P450 2E1 = Cytochrome P450 2E1 (Homo sapiens, UniProt P05181); conditions: bti-tn-5b1-4; note: in other assays of this panel Not Active means under 50% inhibition at 10 µM
Chain of Cytochrome P450 2E1 (P05181 whole entry): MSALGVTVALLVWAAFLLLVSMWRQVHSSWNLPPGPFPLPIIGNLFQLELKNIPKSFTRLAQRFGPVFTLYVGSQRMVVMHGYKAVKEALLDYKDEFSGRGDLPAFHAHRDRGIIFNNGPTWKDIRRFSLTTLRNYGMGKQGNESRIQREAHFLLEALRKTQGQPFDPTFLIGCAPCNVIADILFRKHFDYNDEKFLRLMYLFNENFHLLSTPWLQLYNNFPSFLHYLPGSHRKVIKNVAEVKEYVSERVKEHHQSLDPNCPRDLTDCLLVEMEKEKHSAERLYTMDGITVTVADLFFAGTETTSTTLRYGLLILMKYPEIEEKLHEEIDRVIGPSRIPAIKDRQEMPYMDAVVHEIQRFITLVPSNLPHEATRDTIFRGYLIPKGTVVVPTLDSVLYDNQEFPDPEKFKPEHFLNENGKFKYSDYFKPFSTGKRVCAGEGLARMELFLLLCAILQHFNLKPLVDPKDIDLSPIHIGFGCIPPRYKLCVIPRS

Chain of Substance-P receptor (P25103 whole entry): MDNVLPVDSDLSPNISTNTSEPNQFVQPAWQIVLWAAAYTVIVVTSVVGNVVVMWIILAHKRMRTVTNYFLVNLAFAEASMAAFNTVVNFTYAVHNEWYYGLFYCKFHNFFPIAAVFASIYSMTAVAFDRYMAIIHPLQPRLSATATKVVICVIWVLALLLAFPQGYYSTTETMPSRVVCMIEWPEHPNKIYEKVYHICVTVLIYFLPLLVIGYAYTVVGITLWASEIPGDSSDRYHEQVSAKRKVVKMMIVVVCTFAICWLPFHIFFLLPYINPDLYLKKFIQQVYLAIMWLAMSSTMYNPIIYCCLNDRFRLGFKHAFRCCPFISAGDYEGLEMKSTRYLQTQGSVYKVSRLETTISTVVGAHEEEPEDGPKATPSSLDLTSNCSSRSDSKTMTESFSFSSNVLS

N=C(N)NC(=O)c1nc(Cl)c(N)nc1N [AMILORIDE]
Not Active: IC50 (Substance-P receptor) | IC50 (Thromboxane-A synthase) | IC50 (Adenosine receptor A1) | IC50 [1] | IC50 [2] | Ki [2] | IC50 [3] | IC50 [4] | Ki [4] | IC50 (Cathepsin G) | IC50 (Cytochrome P450 2E1) | Ki (Cytochrome P450 2E1)

Cc1cc(=O)n(-c2ccccc2)n1C [ANTIPYRINE]
Not Active: IC50 (Substance-P receptor) | IC50 (Thromboxane-A synthase) | IC50 (Adenosine receptor A1) | IC50 [1] | IC50 [2] | Ki [2] | IC50 [3] | IC50 [4] | Ki [4] | IC50 (Cathepsin G) | IC50 (Cytochrome P450 2E1) | Ki (Cytochrome P450 2E1)

CN1C(=O)COc2c(C(=O)NC3CN4CCC3CC4)cc(Cl)cc21 (stereo unspecified) [AZASETRON]
Not Active: IC50 (Substance-P receptor) | IC50 (Thromboxane-A synthase) | IC50 (Adenosine receptor A1) | IC50 [1] | IC50 [2] | Ki [2] | IC50 [3] | IC50 [4] | Ki [4] | IC50 (Cathepsin G) | IC50 (Cytochrome P450 2E1) | Ki (Cytochrome P450 2E1)

C[C@H]1C[C@H]2[C@@H]3CCC4=CC(=O)C=C[C@]4(C)[C@@]3(Cl)[C@@H](O)C[C@]2(C)[C@@]1(O)C(=O)CO [BECLOMETHASONE]
Not Active: IC50 (Substance-P receptor) | IC50 (Thromboxane-A synthase) | IC50 (Adenosine receptor A1) | IC50 [1] | IC50 [2] | Ki [2] | IC50 [3] | IC50 [4] | Ki [4] | IC50 (Cathepsin G) | IC50 (Cytochrome P450 2E1) | Ki (Cytochrome P450 2E1)

CCOC(=O)[C@H](CCc1ccccc1)N[C@H]1CCc2ccccc2N(CC(=O)O)C1=O [BENAZEPRIL]
Not Active: IC50 (Substance-P receptor) | IC50 (Thromboxane-A synthase) | IC50 (Adenosine receptor A1) | IC50 [1] | IC50 [2] | Ki [2] | IC50 [3] | IC50 [4] | Ki [4] | IC50 (Cathepsin G) | IC50 (Cytochrome P450 2E1) | Ki (Cytochrome P450 2E1)

Nc1c(CC(=O)O)cccc1C(=O)c1ccc(Br)cc1 [BROMFENAC]
Not Active: IC50 (Substance-P receptor) | IC50 (Thromboxane-A synthase) | IC50 (Adenosine receptor A1) | IC50 [1] | IC50 [2] | Ki [2] | IC50 [3] | IC50 [4] | Ki [4] | IC50 (Cathepsin G) | IC50 (Cytochrome P450 2E1) | Ki (Cytochrome P450 2E1)

CCCCN1CCCCC1C(=O)Nc1c(C)cccc1C.Cl (stereo unspecified) [BUPIVACAINE HYDROCHLORIDE]
Not Active: IC50 (Substance-P receptor) | IC50 (Thromboxane-A synthase) | IC50 (Adenosine receptor A1) | IC50 [1] | IC50 [2] | Ki [2] | IC50 [3] | IC50 [4] | Ki [4] | IC50 (Cathepsin G) | IC50 (Cytochrome P450 2E1) | Ki (Cytochrome P450 2E1)

C[C@@]12C(=O)OC(=O)[C@]1(C)[C@H]1CC[C@@H]2O1 [CANTHARIDIN]
Not Active: IC50 (Substance-P receptor) | IC50 (Thromboxane-A synthase) | IC50 (Adenosine receptor A1) | IC50 [1] | IC50 [2] | Ki [2] | IC50 [3] | IC50 [4] | Ki [4] | IC50 (Cathepsin G) | IC50 (Cytochrome P450 2E1) | Ki (Cytochrome P450 2E1)

CC1=C(C(=O)O)N2C(=O)[C@@H](NC(=O)[C@H](N)c3ccccc3)[C@H]2SC1 [CEPHALEXIN ANHYDROUS]
Not Active: IC50 (Substance-P receptor) | IC50 (Thromboxane-A synthase) | IC50 (Adenosine receptor A1) | IC50 [1] | IC50 [2] | Ki [2] | IC50 [3] | IC50 [4] | Ki [4] | IC50 (Cathepsin G) | IC50 (Cytochrome P450 2E1) | Ki (Cytochrome P450 2E1)

ClC(Cl)Cl [CHLOROFORM]
Not Active: IC50 (Substance-P receptor) | IC50 (Thromboxane-A synthase) | IC50 (Adenosine receptor A1) | IC50 [1] | IC50 [2] | Ki [2] | IC50 [3] | IC50 [4] | Ki [4] | IC50 (Cathepsin G) | IC50 (Cytochrome P450 2E1) | Ki (Cytochrome P450 2E1)

C=C1CC[C@H](O)C/C1=C/C=C1\CCC[C@]2(C)[C@@H]([C@H](C)CCCC(C)C)CC[C@@H]12 [CHOLECALCIFEROL]
Not Active: IC50 (Substance-P receptor) | IC50 (Thromboxane-A synthase) | IC50 (Adenosine receptor A1) | IC50 [1] | IC50 [2] | Ki [2] | IC50 [3] | IC50 [4] | Ki [4] | IC50 (Cathepsin G) | IC50 (Cytochrome P450 2E1) | Ki (Cytochrome P450 2E1)

C[N+](C)(C)CCO.[Cl-] [CHOLINE CHLORIDE]
Not Active: IC50 (Substance-P receptor) | IC50 (Thromboxane-A synthase) | IC50 (Adenosine receptor A1) | IC50 [1] | IC50 [2] | Ki [2] | IC50 [3] | IC50 [4] | Ki [4] | IC50 (Cathepsin G) | IC50 (Cytochrome P450 2E1) | Ki (Cytochrome P450 2E1)

CCOC(=O)C(C)(C)Oc1ccc(Cl)cc1 [CLOFIBRATE]
Not Active: IC50 (Substance-P receptor) | IC50 (Thromboxane-A synthase) | IC50 (Adenosine receptor A1) | IC50 [1] | IC50 [2] | Ki [2] | IC50 [3] | IC50 [4] | Ki [4] | IC50 (Cathepsin G) | IC50 (Cytochrome P450 2E1) | Ki (Cytochrome P450 2E1)

CC(=O)OCC(=O)[C@@]1(O)CC[C@H]2[C@@H]3CCC4=CC(=O)CC[C@]4(C)[C@H]3C(=O)C[C@@]21C [CORTISONE ACETATE]
Not Active: IC50 (Substance-P receptor) | IC50 (Thromboxane-A synthase) | IC50 (Adenosine receptor A1) | IC50 [1] | IC50 [2] | Ki [2] | IC50 [3] | IC50 [4] | Ki [4] | IC50 (Cathepsin G) | IC50 (Cytochrome P450 2E1) | Ki (Cytochrome P450 2E1)

O=c1ccc2ccccc2o1 [COUMARIN]
Not Active: IC50 (Substance-P receptor) | IC50 (Thromboxane-A synthase) | IC50 (Adenosine receptor A1) | IC50 [1] | IC50 [2] | Ki [2] | IC50 [3] | IC50 [4] | Ki [4] | IC50 (Cathepsin G) | IC50 (Cytochrome P450 2E1) | Ki (Cytochrome P450 2E1)

CN(C)/N=N/c1[nH]cnc1C(N)=O [DACARBAZINE]
Not Active: IC50 (Substance-P receptor) | IC50 (Thromboxane-A synthase) | IC50 (Adenosine receptor A1) | IC50 [1] | IC50 [2] | Ki [2] | IC50 [3] | IC50 [4] | Ki [4] | IC50 (Cathepsin G) | IC50 (Cytochrome P450 2E1) | Ki (Cytochrome P450 2E1)

COc1ccc2c(c1)[C@]13CCCC[C@@H]1[C@H](C2)N(C)CC3 [DEXTROMETHORPHAN]
Not Active: IC50 (Substance-P receptor) | IC50 (Thromboxane-A synthase) | IC50 (Adenosine receptor A1) | IC50 [1] | IC50 [2] | Ki [2] | IC50 [3] | IC50 [4] | Ki [4] | IC50 (Cathepsin G) | IC50 (Cytochrome P450 2E1) | Ki (Cytochrome P450 2E1)

CC(=O)Nc1c(I)c(NC(C)=O)c(I)c(C(=O)O)c1I [DIATRIZOIC ACID]
Not Active: IC50 (Substance-P receptor) | IC50 (Thromboxane-A synthase) | IC50 (Adenosine receptor A1) | IC50 [1] | IC50 [2] | Ki [2] | IC50 [3] | IC50 [4] | Ki [4] | IC50 (Cathepsin G) | IC50 (Cytochrome P450 2E1) | Ki (Cytochrome P450 2E1)
